The record followed here is EP2902035B1, “Cell-permeable peptide inhibitors of the JNK signal transduction pathway for use in the treatment of inflammatory eye diseases” (Xigen Inflammation Ltd., priority 2010, dated 2012).

Test [1] relates to chemokines/ cytokines in the serum. Briefly: Chemokine/Cytokine Multiplex Assay on serum in EIU. In kind it is in vivo, Lewis rats. As to conditions: tendency, not statistically significant. As to the method: Aqueous humor and vitreous were collected and pooled from each enucleated eye. Ocular fluids were immediately centrifuged and the cell-free fractions were collected and frozen at -20°C before analysis by Multiplex assay. Blood samples were first clotted at room temperature for 2 hours and then at 4°C overnight. Serum was collected, centrifuged and the clear supernatant was collected and frozen at -20°C before Multiplex analysis.
In a first set of experiment, 70 rats were randomized into 14 experimental groups with 5 rats per group. Uveitis was induced in each group and rats were killed 6 hours (4 groups), 24 hours (6 groups) and 48 hours (4 groups) after LPS challenge. For each time point tested (i.e. 6h, 24h and 48h), rats treated by intravenous or intravitreous injections of vehicle (NaCl 0.9%) or the JNK-inhibitor (poly-)peptide of SEQ ID NO: 11 were compared to untreated control uveitic rats. Two additional groups, treated by intravenous injection of vehicle and intravitreal injection of dexamethasone were used at 24 hours. Clinical ocular inflammation was recorded only at 24 hours (see Scoring of Endotoxin-Induced Uveitis (EIU) section). At each time point, intraocular fluids from each eye (n=10 per group) and serum from each animal (n=5 per group) were used for Chemokine/Cytokine Multiplex Assay.
Intraocular fluids (diluted to obtain a final volume of 25 µL) and sera (25 µL of 1:5 dilution) were subjected to multiplex bead analysis. This method uses microspheres as the solid support for immunoassays 12 and allows the titration of a greater number of cytokines with increased sensitivity than occurs with ELISA.13 For each sample, seventeen analytes were quantified simultaneously using the rat Cytokine/Chemokine-17plex kit (Milliplex Map Kit, Millipore, Saint-Quentin-en-Yvelines, France) according to the manufacturer's instructions: Chemokines MCP-1/CCL2, MIP-1α/CCL3, RANTES/CCL5, IP-10/CXCL10 (IFN-inducible protein-10) and GRO/KC; proinflammatory mediators IL-1, IL-18 and TNF-; Th1/Th2/Th17 cytokines IL-2 and IFN- / IL-4, IL-5, IL-6, IL-10 and IL-13 / IL-17. […]

The subject of a further test is iNOS mRNA. Briefly: iNOS expression in ocular tissues by semi-quantitative PCR in EIU. The format is in vivo, Lewis rats. To be noted: retinas. As to the method:
Retinas and RPE/choroid/sclera complexes were also collected at 24 hours to analyze iNOS mRNA levels by RT-PCR and c-Jun phosphorylation state by Western-Blot. Tissues were collected only from eyes treated by IV (intravenous) injection of vehicle, IV injection of the JNK-inhibitor (poly-)peptide of SEQ ID NO: 11, IVT (intravitreal) injection of vehicle and IVT injection of the JNK-inhibitor (poly-)peptide of SEQ ID NO: 11 (n=2 eyes per condition collected from separate rats). Eyes were selected so that their EIU clinical score was representative of the mean of the experimental group they belong to, i.e 3 for eyes treated by IV and IVT injection of vehicle and 2 for eyes treated by IV or IVT injection of the JNK-inhibitor (poly-)peptide of SEQ ID NO: 11.
Two eyes per group were used for this analysis. Immediately after dissection, retinas extracted from each eye were separately snap frozen and stored at -80°C until use. Total RNA was extracted from tissues (RNeasy minikit, Qiagen, Courtaboeuf, France) according to the manufacturer's instructions. […] PCR fragments (162 bp for GAPDH and 657 bp for iNOS) were analyzed by 2.5% agarose gel electrophoresis and visualized by ethidium bromide staining under UV light. The relative band intensity for iNOS was calculated in comparison to that for GAPDH after densitometry analysis (ImageJ software).

Consider `CC(C)C[C@@H](NC(=O)[C@@H](Cc1ccccc1)NC(=O)[C@H]1CCCN1C(=O)[C@@H](CCC(N)=O)NC(=O)[C@H](NC(=O)[C@H]1CCCN1C(=O)[C@@H](CCCNC(=N)N)NC(=O)[C@@H](CO)NC(=O)[C@@H](CCC(N)=O)NC(=O)[C@H](N)CC(=O)O)C(C)C)C(=O)N[C@H](CC(N)=O)C(=O)N[C@H](CC(C)C)C(=O)N[C@@H](C(=O)N[C@@H](C(=O)N1CCC[C@@H]1C(=O)N[C@H](CCCNC(=N)N)C(=O)N[C@H](CCCCN)C(=O)N1CCC[C@@H]1C(=O)N[C@H](CCCNC(=N)N)C(=O)N1CCC[C@@H]1C(=O)N1CCC[C@@H]1C(=O)N[C@H](CCCNC(=N)N)C(=O)N[C@H](CCCNC(=N)N)C(=O)N[C@H](CCCNC(=N)N)C(=O)N[C@H](CCC(N)=O)C(=O)N[C@H](CCCNC(=N)N)C(=O)N[C@H](CCCNC(=N)N)C(=O)N[C@H](CCCCN)C(=O)N[C@H](CCCCN)C(=O)N[C@H](CCCNC(=N)N)C(=O)NCC(=O)O)[C@H](C)O)[C@H](C)O` [SEQ ID NO: 11], for which the IL-2 result in test [1] (after IV administration) and in test [1] (after IVT) was “reduction” in each case. For the same compound, the MIP-1α entry in test [1] (after IV administration) was “reduction”. The “Levels of iNOS mRNA (relative band intensity in comparison to GAPDH)” value with iNOS mRNA (24 hours after IV) turned out to be 0.40 ± 0.11; in the test on iNOS mRNA (24 hours after IVT injection) it was 0.27 ± 0.09.
